Test results: patent US5763477A, “Taxane derivatives from 14-β-hydroxy-10 deacetylbaccatin III” (Dr. Reddy's Research Foundation, priority 1994, dated 1998)
Where two headings read alike, the source gives them in different places.

What was measured:
Format in all cases: cell-based
HL60 = test: In vitro anti-cancer activity, leukemia, cell line HL60; details: Homo sapiens, HL-60
Description: (§1) In particular, these compounds are related to taxol, the recently FDA approved anticancer drug, and its various analogues having an additional hydroxyl group at C-14 position of the taxane skeleton. […] Selectivity and sensitivity were particularly good at 0.01 to 1 μm concentrations at G150 level (concentrations of the agent in the assay that produced 50 0 growth inhibition).
(§2) IN VITRO ANTI-CANCER ACTIVITY DATA OF 7,10-DIMETHYLACETONIDO 14-HYDROXY TAXOL (Compound 23) ON LEUKEMIA, OVARIAN AND BREAST CANCER CELL LINES IN COMPARISON TO TAXOL
(§3) All the values are given in μm concentrations:
(§4) The notations GI50, TGI refer to the concentrations of the agent in the assay that produced 50% growth inhibition, total growth inhibition respectively.

SR = test: In vitro anti-cancer activity, leukemia, cell line SR; details: Homo sapiens
Description: as §1, §2, §3, §4

SW 620 = test: In vitro anti-cancer activity, colon cancer, cell line SW 620; details: Homo sapiens
Description: as §1, §2, §3, §4

HT-29 = test: In vitro anti-cancer activity, colon cancer, cell line HT-29; details: Homo sapiens
IGR-OV1 = test: In vitro anti-cancer activity, ovarian cancer, cell line IGR-OV1; details: Homo sapiens, IGROV-1
Description: as §1, §2, §3, §4

Molt-4 = test: In vitro anti-cancer activity, leukemia, cell line Molt-4; details: Homo sapiens
Description: as §1, §2, §3, §4

T47D = test: In vitro anti-cancer activity, breast cancer, cell line T47D; details: Homo sapiens
Description: as §1, §2, §3, §4

HCT 116 = test: In vitro anti-cancer activity, colon cancer, cell line HCT 116; details: Homo sapiens
HCT 15 = test: In vitro anti-cancer activity, colon cancer, cell line HCT 15; details: Homo sapiens
OVCAR5 = test: In vitro anti-cancer activity, ovarian cancer, cell line OVCAR5; details: Homo sapiens, OVCAR-5
Description: as §1, §2, §3, §4

MDA-N = test: In vitro anti-cancer activity, breast cancer, cell line MDA-N; details: Homo sapiens
Description: as §1, §2, §3, §4

RPMI-8226 = test: In vitro anti-cancer activity, leukemia, cell line RPMI-8226; details: Homo sapiens
Description: as §1, §2, §3, §4

OVCAR4 = test: In vitro anti-cancer activity, ovarian cancer, cell line OVCAR4; details: Homo sapiens, OVCAR-4
Description: as §1, §2, §3, §4

K-562 = test: In vitro anti-cancer activity, leukemia, cell line K-562; details: Homo sapiens, K562
Description: as §1, §2, §3, §4

OVCAR3 = test: In vitro anti-cancer activity, ovarian cancer, cell line OVCAR3; details: Homo sapiens, OVCAR-3
Description: as §1, §2, §3, §4

[1] = tested on: three ovarian cancer cell lines; test: Activity on three ovarian cancer cell lines (National Cancer Institute protocols)
Description: as §1

MCF7 = test: In vitro anti-cancer activity, breast cancer, cell line MCF7; details: Homo sapiens
Description: as §1, §2, §3, §4

MDA-MB 231 = test: In vitro anti-cancer activity, breast cancer, cell line MDA-MB 231; details: Homo sapiens
Description: as §1, §2, §3, §4

MDA-MB 435 = test: In vitro anti-cancer activity, breast cancer, cell line MDA-MB 435; details: Homo sapiens
Description: as §1, §2, §3, §4

[2] = tested on: three leukemia cell lines; test: Activity on three leukemia cell lines (National Cancer Institute protocols)
Description: as §1

KM12 = test: In vitro anti-cancer activity, colon cancer, cell line KM12; details: Homo sapiens
BT 549 = test: In vitro anti-cancer activity, breast cancer, cell line BT 549; details: Homo sapiens
Description: as §1, §2, §3, §4

H5578T = test: In vitro anti-cancer activity, breast cancer, cell line H5578T
Description: as §1, §2, §3, §4

[3] = tested on: leukemia, colon cancer and ovarian cancer cell lines; test: Selectivity and sensitivity (National Cancer Institute protocols); details: towards leukemia
Description: as §1

[4] = breast cancer, read-out: TGI (total growth inhibition)
[5] = read-out: TGI (total growth inhibition)

## CC(=O)O[C@@]12CO[C@@H]1C[C@@H]1OC(C)(C)O[C@H]3C(=O)[C@@]1(C)[C@@H]2[C@H](OC(=O)c1ccccc1)[C@]1(O)[C@@H](O)[C@H](OC(=O)[C@H](O)[C@@H](NC(=O)c2ccccc2)c2ccccc2)C(C)=C3C1(C)C [Compound 23, 7,10-dimethyl acetonido-14-hydroxy taxol]
HL60; leukemia, HL60, read-out: GI50
  GI50: 44 nM
SR; leukemia, read-out: GI50
  GI50: 84 nM
SW 620; colon cancer, SW 620, read-out: GI50
  GI50: 131 nM
HT-29; colon cancer, read-out: GI50
  GI50: 79 nM
IGR-OV1; ovarian cancer, IGR-OV1, read-out: GI50
  GI50: 66 nM
Molt-4; leukemia, Molt-4, read-out: GI50
  GI50: 267 nM
T47D; breast cancer, read-out: GI50
  GI50: 158 nM
T47D; [4]
  IC (total growth inhibition): 17.7 µM
HCT 116; colon cancer, HCT 116, read-out: GI50
  GI50: 228 nM
HCT 15; colon cancer, HCT 15, read-out: GI50
  GI50: 2140 nM
OVCAR5; ovarian cancer, OVCAR5, read-out: GI50
  GI50: 770 nM
MDA-N; breast cancer, read-out: GI50
  GI50: 33 nM
MDA-N; [4]
  IC (total growth inhibition): 0.12 µM
RPMI-8226; leukemia, read-out: GI50
  GI50: 57 nM
OVCAR4; ovarian cancer, OVCAR4, read-out: GI50
  GI50: 1860 nM
K-562; leukemia, K-562, read-out: GI50
  GI50: 247 nM
OVCAR3; ovarian cancer, OVCAR3, read-out: GI50
  GI50: 131 nM
[1]
  IC50: < 1000 nM
MCF7; breast cancer, MCF7, read-out: GI50
  GI50: 70 nM
MCF7; breast cancer, MCF7, read-out: TGI (total growth inhibition)
  IC (total growth inhibition): > 30 µM
MDA-MB 231; breast cancer, MDA-MB 231, read-out: GI50
  GI50: 500 nM
MDA-MB 231; breast cancer, MDA-MB 231, read-out: TGI (total growth inhibition)
  IC (total growth inhibition): > 30 µM
MDA-MB 435; breast cancer, MDA-MB 435, read-out: GI50
  GI50: 30 nM
MDA-MB 435; breast cancer, MDA-MB 435, read-out: TGI (total growth inhibition)
  IC (total growth inhibition): 0.12 µM
[2]
  IC50: < 100 nM
KM12; colon cancer, read-out: GI50
  GI50: 77 nM
BT 549; breast cancer, BT 549, read-out: GI50
  GI50: 443 nM
BT 549; breast cancer, BT 549, read-out: TGI (total growth inhibition)
  IC (total growth inhibition): 11.2 µM
H5578T; breast cancer, H5578T, read-out: GI50
  GI50: 137 nM
H5578T; breast cancer, H5578T, read-out: TGI (total growth inhibition)
  IC (total growth inhibition): 0.89 µM
[3]
  selectivity and sensitivity: good selectivity and sensitivity

## CC(=O)O[C@H]1C(=O)[C@@]2(C)[C@H]([C@H](OC(=O)c3ccccc3)[C@]3(O)C[C@H](OC(=O)[C@H](O)[C@@H](NC(=O)c4ccccc4)c4ccccc4)C(C)=C1C3(C)C)[C@]1(OC(C)=O)CO[C@@H]1C[C@@H]2O [Taxol, reference compound]
HL60
  GI50: 10 nM
SR
  GI50: 33 nM
SW 620; SW-620
  GI50: 20 nM
HT-29
  GI50: 8 nM
IGR-OV1
  GI50: 28 nM
Molt-4; MOLT-4
  GI50: 53 nM
T47D
  GI50: 109 nM
T47D; [5]
  TGI (total growth inhibition): 1000 nM
HCT 116; HCT-116
  GI50: 19 nM
HCT 15; HCT-15
  GI50: 570 nM
OVCAR5
  GI50: 75 nM
MDA-N
  GI50: 4 nM
MDA-N; [5]
  TGI (total growth inhibition concentration): 15 nM
RPMI-8226
  GI50: 6 nM
OVCAR4
  GI50: 380 nM
K-562
  GI50: 15 nM
OVCAR3
  GI50: 22 nM
MCF7; MCF7
  GI50: 9 nM
MCF7; MCF7, read-out: TGI (total growth inhibition)
  IC (total growth inhibition): 1 µM
MDA-MB 231; MDA-MB-231
  GI50: 100 nM
MDA-MB 231; MDA-MB-231, read-out: TGI (total growth inhibition)
  IC (total growth inhibition): 0.67 µM
MDA-MB 435; MDA-MB-435
  GI50: 6 nM
MDA-MB 435; MDA-MB-435, read-out: TGI (total growth inhibition)
  IC (total growth inhibition): 0.025 µM
KM12
  GI50: 16 nM
BT 549; BT-549
  GI50: 60 nM
BT 549; BT-549, read-out: TGI (total growth inhibition)
  IC (total growth inhibition): 0.7 µM
H5578T
  GI50: 12 nM
H5578T; [5]
  TGI (total growth inhibition): 150 nM
